How the values were obtained:
Type in all cases: cell-based, human
[1] = system: phosphorylated FAK (pFAK); assay: Western blotting of phosphorylated FAK; settings: siRNA-transfected cells vs siNeg#1; not shown
Description: Because phosphorylation of focal adhesion kinase (FAK), which is activated at Focal adhesion, has been associated with melanoma malignancy (refer to NPL 19), FAK change by ZIC5 was examined. Furthermore, focusing on Integrin, alpha 6 (ITGA6) and platelet-derived growth factor D (PDGFD) among the Focal adhesion-related genes in the altered genes by Zic5 knockdown, change in cells was examined. Specifically, a level of phosphorylated FAK (pFAK), total FAK (FAK), ITGA6, pro-PDGFD, and β-actin in A375 cells transfected with siZIC5 or siNeg was assessed by western blotting. Western blotting was performed in the same manner as above except that anti-pFAK antibody (manufactured by Signalway Antibody), anti-FAK antibody (manufactured by Acris), anti-β-actin antibody (manufactured by Sigma), anti-ITGA6 antibody (manufactured by GeneTex), and anti-PDGFD antibody (manufactured by Santa Cruz) were used.

[2] = system: phosphorylated ERK1/2 (Thr202/204) (pERK); assay: Western blotting of phosphorylated ERK1/2; settings: vemR-3 cells; PLX4032 or DMSO treatment; siRNA vs siNeg
Protocol: Western blotting was performed in the same manner as above except that anti-pAKT antibody (manufactured by Cell Signaling), anti-AKT antibody (manufactured by Cell Signaling), anti-pERK antibody (manufactured by Cell Signaling), anti-ERK antibody (manufactured by Cell Signaling), and anti-β-actin antibody (manufactured by Sigma) were used.
vemR-1 to 3 cells and HT144 cells were treated with DMSO or PLX4032 solution (which was dissolved in DMSO to become 5 μM) for 48 hours, and the level of pAKT, AKT, pERK, ERK, and β-actin of these cells was assessed by western blotting in the same manner as Example 8.
A375 cells were treated in a medium in which a concentration of a FAK inhibitor I (manufactured by Calbiochem) was 0, 1, 2.5, or 5 μM for 24 hours, and the level of ZIC5, pro-PDGFD, pERK, and β-actin was measured by western blotting. Western blotting was performed in the same manner as above except that anti-ZIC5 antibody (manufactured by Aviva systems biology), anti-PDGFD antibody (manufactured by Santa Cruz), anti-pERK antibody (manufactured by Cell Signaling), and anti-β-actin antibody (manufactured by Sigma) were used.
A375 cells were treated in a medium in which a concentration of Interleukin-6 (IL-6) (manufactured by Novus Biologicals) was 0, 10, or 20 ng/mL for 24 hours, and then western blotting was performed to assess the level of ZIC5, pro-PDGFD, pSTAT3, STAT3, and GAPDH. […]

A375 cells = assay: Cell cycle analysis (PI staining, flow cytometry), A375 cells; settings: average value
Protocol: In cell cycle analysis, first, the cells were cultured in serum-free medium for 24 hours and then cultured in media containing 10% FBS for 24 hours. Next, the cells were fixed, stained with propidium iodide (PI), and then flow cytometry analysis (SH800, manufactured by Sony) was performed. The obtained data was analyzed using analysis software, FlowJo (manufactured by TOMY DIGITAL BIOLOGY, Tokyo, Japan). As a result, a sub-G1 population of cells increased in the cells in which Zic5 gene knockdown occurred.
Furthermore, a cell cycle of each cell was examined with respect to A375 cells. An average value (SD) of percentages (%) of cells in G1 population, S population, and G2M population of each cell is shown in Table 9. […] As a result, percentages of cells in the S population and G2M population of A375 cells were reduced by PDGFD gene knockdown.

## siPDGFD#1: siRNA for PDGFD gene; targeting sequence CAGGAATTACTCGGTCAATAT (SEQ. NO. 28) (listed as DNA, chemistry not given here)
[1]
  FAK phosphorylation (pFAK level): reduced FAK phosphorylation
[2]
  pERK level (inactivation of ERK): the pERK level decreased
A375 cells
  percentage of cells in G1 population: 71.6%
  percentage of cells in G2M population: 18.6%
  percentage of cells in S population: 8.1%
